What was measured:
[1] = tested on: mouse spermatozoa; assay: Sander & Cramer spermicidal assay (in vitro); assay type: cell-based; conditions: Mouse spermatozoa (N = 10); all immobilized within 20 seconds
Procedure: (§1) Sexually mature male mice and rats were autopsied following euthanasia by an overdose of Ketamin (≧200 mg/kg body weight; injected i.p.) and their cauda epididymis were excised. Working suspension of animal spermatozoa was prepared with the exudates obtained after careful pricking of the cauda epididymis with an injection needle (18 G) and the exudates were collected in a conical centrifuge tube.
(§2) The exudates/liquefied human semen samples were suspended in BWW medium (pre equilibrated at 37 degree C.). The spermatozoa with forward motility were separated from immotile or sluggishly motile cells by the swim-up technique and were allowed to disperse evenly within a CO2 incubator at 37 degree C. At least five aliquots from each sample was used to prepare the working spermatozoa suspension. The swim up procedure was as follows:
(§3) Pre equilibrated BWW medium (1.25 ml) was gently layered over cauda-exudates or liquefied human semen (1 ml) in a sterile 15 ml conical-based centrifuge tube. The tube was inclined at an angle of 45 degree and incubated for 1 hour at 37 degree C. in a CO2-incubator. It was then gently returned to the upright position and the uppermost 1 ml medium with a turbid appearance was removed. This aliquot of motile cells was pooled from each set, then diluted with same volumes of pre equilibrated BWW medium, centrifuged at 500 g for 5 minutes and finally resuspended in 1 ml pre equilibrated BWW medium to obtain a working suspension. The sperm cells were counted in a Makler chamber (Zygotec Systems, Springfield, M A, USA) and finally a working spermatozoa suspension having concentration of 25 to 30×10^6 cells/ml was prepared.
(§4) For in vitro assay of spermicidal effect, sperms collected from proven male rats and mice, and motile spermatozoa from liquefied human semen were used.
(§5) The assay was done following the Sander & Cramer assay method. Two hundred micro liter (200 microliters) of working spermatozoa suspension was added to 1 ml solution of test material in BWW medium and mixed on a light vortex for 10 seconds. A wet mount was immediately prepared on a clean microscopy glass slide and examined (at ×100) under a phase contrast microscope (Leitz, Biomed). The weakest concentration that immobilized all spermatozoa within 20 seconds of mixing was recorded as MEC. At least five fields were examined for each wet mount preparation. The observation was repeated with five individual spermatozoa suspension for each concentration of test compound solution. For negative control, saponin solutions were replaced by equal volume of BWW medium, while Nonoxynol 9 was used as positive control.

[2] = tested on: rat spermatozoa; assay: Sander & Cramer spermicidal assay (in vitro); assay type: cell-based; conditions: Rat spermatozoa (N = 10); all immobilized within 20 seconds
Procedure: as §1, §2, §3, §4, §5

[3] = tested on: human spermatozoa; conditions: cited from earlier work
[4] = tested on: human spermatozoa; assay: Sander & Cramer spermicidal assay (in vitro); assay type: cell-based; conditions: Human spermatozoa (N = 5); weakest concentration immobilizing all spermatozoa within 20 seconds
Procedure: as §2, §3, §4, §5

[5] = tested on: Salmonella typhimurium TA100; assay: Bacterial reverse mutation assay (MUTA-CHROMOPLATE kit); conditions: Background = 20, Blank = 0
Excerpt: Ac-B was examined for its ability to produce mutations/revert mutations in a bacterial reverse mutation assay using amino acid-requiring strain of Salmonella typhimurium (S. typhimurium) TA100 and the result was compared with a known mutagen (Na-azide). A commercial kit (The MUTA-CHROMOPLATE) from M/s Environmental Biodetection Products Inc. Ontario, Canada, was used. Suspensions of bacterial cells were exposed to the test substance in the presence and in the absence of an exogenous metabolic activation system. After 5 days of incubation, revertant colonies were detected by the change of colour from blue to yellow on solvent control plates. All yellow, partially yellow or turbid wells were scored as positive, while all purple wells were scored as negative. Number of positive wells for each plate was recorded, their number was counted and compared to that of spontaneous revertant colonies. The “Background” (i.e. no test material added) plate was used as reference for the level of spontaneous or background mutation of the assay organism. The statistical difference was determined using a table provided with the kit.
Score of mutagenicity as per the set criteria of Muta-Chromoplate test kit.

| Compound | MEC as per Sander and Cramer Test [1] | MEC as per Sander and Cramer Test [2] | MEC for N-9 ([3]; closest prior arts) | MEC of N-9 for spermicidal action ([3]; comparison value in concluding remarks) | MEC as per Sander and Cramer Test [4] | No. of '+' wells (Muta-Chromoplate score) [5] |
| --- | --- | --- | --- | --- | --- | --- |
| isononyl-phenyl-polyoxyethylene (9) ether [Nonoxynol 9, reference compound] | 350 (±10) microgram per ml | 350 (±10) microgram per ml | 200-500 microgram per ml | 200-500 microgram | >350 microgram per ml | – |
| [N-]=[N+]=[N-].[Na+] [Na-azide, reference compound] | – | – | – | – | – | 74 |

— patent publication US8729034B2, “Pharmaceutical composition having virucidal and spermicidal activity” (priority 2007, dated 2014)
